Reference: ChEMBL document CHEMBL3045563, “Synthesis and in vitro antibacterial activity of schiff bases of N-substituted isatins as effective scaffolds” (2013)
Values after ≈ are worked out from the molar mass of the structure shown.

Legend:
Assay type in all cases: functional
[1] = system: Staphylococcus epidermidis; assay: Antibacterial activity against Staphylococcus epidermidis NCIM 2493 assessed as diameter of growth zone inhibition after 24 hr by disk diffusion method
Proteus vulgaris [2] = assay: Antibacterial activity against Proteus vulgaris NCIM 2027 assessed as diameter of growth zone inhibition after 24 hr by disk diffusion method
Escherichia coli [3] = assay: Antibacterial activity against Escherichia coli NCIM 2065 assessed as diameter of growth zone inhibition after 24 hr by disk diffusion method
Pseudomonas aeruginosa [4] = assay: Antibacterial activity against Pseudomonas aeruginosa NCIM 2036 assessed as diameter of growth zone inhibition after 24 hr by disk diffusion method
Bacillus subtilis [5] = assay: Antibacterial activity against Bacillus subtilis NCIM 2156 assessed as diameter of growth zone inhibition after 24 hr by disk diffusion method
Proteus vulgaris [6] = assay: Antibacterial activity against Proteus vulgaris NCIM 2027 assessed as growth inhibition after 48 hr by NCCLS broth dilution method; conditions: NCIM 2027, 48 h
Staphylococcus aureus [7] = assay: Antibacterial activity against Staphylococcus aureus NCIM 2079 assessed as diameter of growth zone inhibition after 24 hr by disk diffusion method
[8] = system: Staphylococcus epidermidis; assay: Antibacterial activity against Staphylococcus epidermidis NCIM 2493 assessed as growth inhibition after 48 hr by NCCLS broth dilution method; conditions: NCIM 2493, 48 h
Escherichia coli [9] = assay: Antibacterial activity against Escherichia coli NCIM 2065 assessed as growth inhibition after 48 hr by NCCLS broth dilution method; conditions: NCIM 2065, 48 h
Bacillus subtilis [10] = assay: Antibacterial activity against Bacillus subtilis NCIM 2156 assessed as growth inhibition after 48 hr by NCCLS broth dilution method; conditions: NCIM 2156, 48 h
Pseudomonas aeruginosa [11] = assay: Antibacterial activity against Pseudomonas aeruginosa NCIM 2036 assessed as growth inhibition after 48 hr by NCCLS broth dilution method; conditions: NCIM 2036, 48 h
Staphylococcus aureus [12] = assay: Antibacterial activity against Staphylococcus aureus NCIM 2079 assessed as growth inhibition after 48 hr by NCCLS broth dilution method; conditions: NCIM 2079, 48 h

| Compound | diameter of the inhibition zone (DIZ) [1] [mm] | diameter of the inhibition zone (DIZ) (Proteus vulgaris [2]) [mm] | diameter of the inhibition zone (DIZ) (Escherichia coli [3]) [mm] | diameter of the inhibition zone (DIZ) (Pseudomonas aeruginosa [4]) [mm] | diameter of the inhibition zone (DIZ) (Bacillus subtilis [5]) [mm] | MIC (Proteus vulgaris [6]) [µg/mL] | diameter of the inhibition zone (DIZ) (Staphylococcus aureus [7]) [mm] | MIC [8] [µg/mL] | MIC (Escherichia coli [9]) [µg/mL] | MIC (Bacillus subtilis [10]) [µg/mL] | MIC (Pseudomonas aeruginosa [11]) [µg/mL] | MIC (Staphylococcus aureus [12]) [µg/mL] |
| --- | --- | --- | --- | --- | --- | --- | --- | --- | --- | --- | --- | --- |
| Cc1cc(/N=C2\C(=O)Nc3ccc([N+](=O)[O-])cc32)ccc1N1C(=O)c2ccc(Cl)cc2C1=O | 20 | 11 | 22 | 18 | 16 | 15 (≈ 32.5 µM) | 20 | 10 (≈ 21.7 µM) | 10 (≈ 21.7 µM) | 15 (≈ 32.5 µM) | 10 (≈ 21.7 µM) | 10 (≈ 21.7 µM) |
| Cc1cc(/N=C2\C(=O)Nc3ccc(OC(F)(F)F)cc32)ccc1N1C(=O)c2ccc(Cl)cc2C1=O | 18 | 14 | 24 | 20 | 16 | 15 (≈ 30 µM) | 18 | 10 (≈ 20 µM) | 10 (≈ 20 µM) | 15 (≈ 30 µM) | 10 (≈ 20 µM) | 10 (≈ 20 µM) |
| Cc1ccc2c(c1)/C(=N/c1ccc(N3C(=O)c4ccc(Cl)cc4C3=O)c(C)c1)C(=O)N2 | 10 | 10 | 12 | 16 | 12 | 20 (≈ 46.5 µM) | 20 | 15 (≈ 34.9 µM) | 20 (≈ 46.5 µM) | 25 (≈ 58.2 µM) | 15 (≈ 34.9 µM) | 10 (≈ 23.3 µM) |
| Cc1cc(/N=C2\C(=O)N(S(=O)(=O)c3ccc([N+](=O)[O-])cc3)c3ccc([N+](=O)[O-])cc32)ccc1N1C(=O)c2ccc(Cl)cc2C1=O | 20 | 14 | 22 | 18 | 16 | 15 (≈ 23.2 µM) | 18 | 10 (≈ 15.5 µM) | 10 (≈ 15.5 µM) | 15 (≈ 23.2 µM) | 10 (≈ 15.5 µM) | 10 (≈ 15.5 µM) |
| Cc1cc(/N=C2\C(=O)N(S(C)(=O)=O)c3ccc([N+](=O)[O-])cc32)ccc1N1C(=O)c2ccc(Cl)cc2C1=O | 18 | 14 | 24 | 18 | 16 | 15 (≈ 27.8 µM) | 16 | 10 (≈ 18.6 µM) | 10 (≈ 18.6 µM) | 15 (≈ 27.8 µM) | 10 (≈ 18.6 µM) | 15 (≈ 27.8 µM) |
| Cc1cc(/N=C2\C(=O)N(S(=O)(=O)C(F)(F)F)c3ccc(OC(F)(F)F)cc32)ccc1N1C(=O)c2ccc(Cl)cc2C1=O | 10 | 20 | 23 | 12 | 20 | 10 (≈ 15.8 µM) | 18 | 15 (≈ 23.7 µM) | 10 (≈ 15.8 µM) | 10 (≈ 15.8 µM) | 15 (≈ 23.7 µM) | 15 (≈ 23.7 µM) |
| Cc1cc(/N=C2\C(=O)N(S(C)(=O)=O)c3ccc(OC(F)(F)F)cc32)ccc1N1C(=O)c2ccc(Cl)cc2C1=O | 18 | 16 | 22 | 14 | 18 | 15 (≈ 26 µM) | 16 | 10 (≈ 17.3 µM) | 10 (≈ 17.3 µM) | 15 (≈ 26 µM) | 15 (≈ 26 µM) | 15 (≈ 26 µM) |
| Cc1cc(/N=C2\C(=O)N(S(=O)(=O)c3ccc([N+](=O)[O-])cc3)c3ccc(OC(F)(F)F)cc32)ccc1N1C(=O)c2ccc(Cl)cc2C1=O | 18 | 22 | 20 | 18 | 14 | 10 (≈ 14.6 µM) | 20 | 10 (≈ 14.6 µM) | 10 (≈ 14.6 µM) | 15 (≈ 21.9 µM) | 10 (≈ 14.6 µM) | 10 (≈ 14.6 µM) |
| Cc1cc(/N=C2\C(=O)N(Cc3ccccc3)c3ccc([N+](=O)[O-])cc32)ccc1N1C(=O)c2ccc(Cl)cc2C1=O | 10 | 14 | 16 | 14 | 10 | 15 (≈ 27.2 µM) | 12 | 15 (≈ 27.2 µM) | 15 (≈ 27.2 µM) | 25 (≈ 45.4 µM) | 15 (≈ 27.2 µM) | 30 (≈ 54.5 µM) |
| C#CCN1C(=O)/C(=N\c2ccc(N3C(=O)c4ccc(Cl)cc4C3=O)c(C)c2)c2cc([N+](=O)[O-])ccc21 | 8 | 10 | 18 | 14 | 8 | 20 (≈ 40.1 µM) | 13 | 20 (≈ 40.1 µM) | 15 (≈ 30.1 µM) | 30 (≈ 60.1 µM) | 15 (≈ 30.1 µM) | 25 (≈ 50.1 µM) |
| CCCN1C(=O)/C(=N\c2ccc(N3C(=O)c4ccc(Cl)cc4C3=O)c(C)c2)c2cc([N+](=O)[O-])ccc21 | 12 | 12 | 12 | 10 | 10 | 20 (≈ 39.8 µM) | 10 | 15 (≈ 29.8 µM) | 20 (≈ 39.8 µM) | 30 (≈ 59.7 µM) | 20 (≈ 39.8 µM) | 30 (≈ 59.7 µM) |
| C#CCN1C(=O)/C(=N\c2ccc(N3C(=O)c4ccc(Cl)cc4C3=O)c(C)c2)c2cc(OC(F)(F)F)ccc21 | 10 | 14 | 10 | 12 | 11 | 15 (≈ 27.9 µM) | 10 | 15 (≈ 27.9 µM) | 20 (≈ 37.2 µM) | 25 (≈ 46.5 µM) | 15 (≈ 27.9 µM) | 30 (≈ 55.8 µM) |
| Cc1cc(/N=C2\C(=O)N(Cc3ccccc3)c3ccc(OC(F)(F)F)cc32)ccc1N1C(=O)c2ccc(Cl)cc2C1=O | 8 | 12 | 17 | 10 | 12 | 20 (≈ 33.9 µM) | 14 | 20 (≈ 33.9 µM) | 15 (≈ 25.4 µM) | 25 (≈ 42.4 µM) | 20 (≈ 33.9 µM) | 25 (≈ 42.4 µM) |
| O=C(O)c1cn(C2CC2)c2cc(N3CCNCC3)c(F)cc2c1=O [CIPROFLOXACIN] | 28 | 28 | 30 | 24 | 22 | 10 (≈ 30.2 µM) | 26 | 10 (≈ 30.2 µM) |  | 10 (≈ 30.2 µM) | 10 (≈ 30.2 µM) | 10 (≈ 30.2 µM) |
